In patent US12208091B2, “Compounds for treatment of eye diseases associated with excessive vascularisation” (Active Biotech AB, priority 2019, dated 2025):

How the values were obtained:
[1] = system: choroidal neovascularisation; assay: Laser-induced choroidal neovascularisation rat model, fluorescein angiography leakage score; format: in vivo, Brown Norway pigmented rats; set-up: key to Mean score of fluorescein leakage: 0 = no leakage, 1 = slight, 2 = moderate, 3 = strongly stained
Protocol: Forty-eight (48) Brown Norway pigmented rats were divided into six (6) groups of eight (8) animals. Choroidal neovascularization was induced using a 532 nm argon laser photocoagulator (six (6) 75 μm-sized spots at 150 mW for 0.1 sec duration) in the right eyes on Day 0. The test item was administered three times a day by instillation or twice a day by oral administration from Day 0 (DO) just after ChNV induction to Day 21 (last day of the study). Control item (vehicle) was instilled three times a day and the reference item (Dexamethasone in olive oil) was administered by daily oral administration from the Day 0 just after induction of neovascularization to Day 21. Fundus neovessels were evaluated in the right eyes on Days 14 and 21 using Heidelberg's Retinal Angiograph (HRA). Lesion size was determined on choroid flatmounts labelled with Isolectin-B4 at the end of the in vivo period.
On Day 0, animals were anesthetized by an intramuscular injection of a mix of xylazine (5 mg/kg) and ketamine (25 mg/kg). Pupils from the right eyes were dilated by instillation of one drop of 0.5% tropicamide. Then, six (6) choroidal burns (75 μm spot size) were done through a slit-lamp, with a contact lens, around the optic disc, between the main vessel branches using an argon laser photocoagulator (532 nm; 150 mW; 0.1 sec duration). Production of a bubble at the time of laser treatment confirmed the rupture of Bruch's membrane.
Test, control, or reference items were administered topically by instillation (10 μL each) or by oral route (1 mL/kg) from Day 0 (just after the induction) to Day 21 (end of the study). Test and control items were administered three times a day (for instillation) and two times a day (for oral administration). Reference item was administered once a day by oral route.
Fluorescein angiography was performed on Days 14 and 21 using an HRA (Heidelberg's Retinal Angiograph). After anaesthesia (same mix used for ChNV induction) and pupillary dilation, 250 μL/100 g (body weight) of a 10% sodium fluorescein was injected subcutaneously using a 26-G insulin syringe, and fluorescein photos were recorded 10 minutes after dye injection.
The leakage of fluorescein on the angiograms were evaluated by two examiners in a masked fashion and graded as follows: • Score 0, no leakage; • Score 1, slightly stained; • Score 2, moderately stained; • Score 3, strongly stained.
Statistical analysis, using Mann-Whitney U test or appropriate statistical model, were performed on the scoring of lesions visualized by HRA from each animal and on the scoring of the flat mounted preparations.
The grading of fluorescein angiographies (FA) was based on the fluorescence intensity for each lesion. For each treatment group, results were expressed as the group mean score per time-point. Table 1 summarises the evaluation of FA recorded at 10 min on Days 14 and 21 (n=8 animals per group, right eyes). A statistical analysis was performed on the median of the individual intensity scores, using a Kruskall-Wallis test followed by a Mann & Whitney U multiple comparison test, which was used to compare each test, control or reference group.

[2] = system: Human retinal microvascular endothelial cells (HRMECs); assay: LPS-activated microglia-induced HRMEC tube formation (co-culture); format: cell-based; conditions: 10 μM; normalised to vehicle 0%, sulforaphane 100%
Protocol: The following experimental groups were included in the study: • Group 1: […] Sulforaphane (10 μM, positive control, anti-angiogenic effects) • Group 3: Aflibercept (“Eylea” 40 μg/ml, positive control, partial anti-angiogenic effects) • Group 4: […] Human retinal microvascular endothelial cells (HRMECs) were purchased from Neuromics (Cat #HEC09, Lot #2872) and cultured according to manufacturer's instructions in Endo-Growth media (Cat #EKG001, Lot #EKG0011902269) supplemented with Endothelial Growth Factor (Cat #EKG001, Lot #EGK00125) on AlphaBiocoat coated T25 flasks at 37° C. 5% CO2. […] Human microglia were seeded onto PLL coated cell culture inserts (Sarstedt, Cat #83.3932.040) at 103 000 cells/cm^2. […] The method for co-cultures of microglia and HRMECs was modified from protocol described by Ding et al. 2018 (Ding X, Gu R, Zhang M, Ren H, Shu Q, Xu G, Wu H. Microglia enhanced the angiogenesis, migration and proliferation of co-cultured RMECs. […] PMID: 30223824; PMCID: PMC6142340) and Ji Cho et al. 2019 (Ji Cho M, Yoon […], Park J, Lee J, Park J G, Cho Y L, Hun Kim J, Jang H, Park Y J, Lee S H, Min J K. Oxidative stress-mediated TXNIP loss causes RPE dysfunction. […] PMID: 31615975; PMCID: PMC6802648). Microglia was activated with LPS (100 ng/ml) in microglia complete growth media without FBS with simultaneous treatment of freshly prepared study compounds, Eylea and vehicle for 24 hours. HRMECs were incubated in basal Endo-Growth media for 24 hours before co-culturing. […] Media in microglia inserts containing LPS was replaced to corresponding freshly prepared study compounds, aflibercept and sulforaphane in basal Endo-Growth media. […] 5% CO2, stained with calcein-AM (5 μM) for 30 min and imaged using a fluorescence microscope (Leica Thunder 3D Tissue Imager, Leica Microsystems). Images were analyzed using the AngioTool software (Zudaire E, Gambardella L, Kurcz […] Computational Tool for Quantitative Analysis of Vascular Networks. PLOS ONE 6(11): e27385. https://doi.org/10.1371/journal.pone.0027385) for ImageJ (NIH public domain). Total tube area, tube length, density, lacunarity, and branching index (number of junctions and endpoints) were quantified. Images were analyzed using AngioTool software (NIH, Bethesda, MD; available in the public domain) for the following readouts: average vessels length, total vessels length, vessel area, vessels percentage area, total number of junctions, density of junctions, total number of endpoints, and mean lacunarity. […] Raw data for each of the readouts was plotted and analyzed by ordinary one-way ANOVA with Dunnett's multiple comparisons post-hoc test. […] Effect size data were analyzed by non-parametric Kruskal-Wallis test, with Dunn's multiple comparisons post-hoc test.

relapsing MS patients = conditions: clinical development program; cited from earlier work
[3] = Instillations 0.2% 3×/day, Day 14
[4] = Instillations 0.2% 3×/day, Day 21
[5] = Instillations 1% 3×/day, Day 14
[6] = Instillations 1% 3×/day, Day 21
[7] = Instillations 5% 3×/day, Day 14
[8] = Instillations 5% 3×/day, Day 21

SMILES: CCN(C(=O)c1c(O)c2c(Cl)cccc2n(C)c1=O)c1ccccc1 [laquinimod]
- % of reduction vs respective vehicle [1, 3]: 0%
- Mean score of fluorescein leakage [1, 3]: 0.7
- % of reduction vs respective vehicle [1, 4]: 18%
- Mean score of fluorescein leakage [1, 4]: 0.9
- % of reduction vs respective vehicle [1, 5]: <0%
- Mean score of fluorescein leakage [1, 5]: 1.1
- % of reduction vs respective vehicle [1, 6]: <0%
- Mean score of fluorescein leakage [1, 6]: 1.2
- % of reduction vs respective vehicle [1, 7]: 0%
- Mean score of fluorescein leakage [1, 7]: 0.7
- % of reduction vs respective vehicle [1, 8]: 63%
- Mean score of fluorescein leakage [1, 8]: 0.4
- % of reduction vs respective vehicle ([1]; Per os 1 mg/kg 2×/day, Day 14): <0%
- Mean score of fluorescein leakage ([1]; Per os 1 mg/kg 2×/day, Day 14): 0.8
- % of reduction vs respective vehicle ([1]; Per os 1 mg/kg 2×/day, Day 21): 18%
- Mean score of fluorescein leakage ([1]; Per os 1 mg/kg 2×/day, Day 21): 0.9
- vascular leakage ([1]; daily topical administration): effectively reduces vascular leakage
- Normalized effect size on average vessel length [2]: 53%
- annual relapse rate (relapsing MS patients): consistent clinical benefit
